Results taken from US4743616A, “Novel biologically active compound having anti-prolyl endopeptidase activity” (Suntory Limited, priority 1984, dated 1988).

Key:
prolyl endopeptidase = test: Measurement of anti-prolyl endopeptidase activity; type: biochemical; settings: substrate Z-glycyl-proline-β-naphthylamide, phosphate buffer pH 7.0, absorbance at 410 nm
Method: The method of Yoshimoto and Tsuru (T. Yoshimoto and D. Tsuru, Agr. Biol. Chem. 42, 2417, 1978) was used to measure the anti-prolyl endopeptidase activities of several compounds of the present invention. A mixture of 0.0025M Z-glycyl-proline-β-naphthylamide (0.25 ml), 0.1M phosphate buffer (pH, 7.0; 0.99 ml) and a solution of a particular anti-prolyl endopeptidase compound (0.01 ml) was incubated in a test tube at 37° C. for 3 minutes. Thereafter, 0.1 ml of a solution of prolyl endopeptidase (0.2 U/ml) was added and the mixture was heated at 35° C. for 10 minutes. After the reaction, 2.0 ml of Triton X-100 in 1M acetate buffer (pH, 4.0 ) was added to the reaction mixture until the final concentration of the surfactant was 10%. The mixture was left at room temperature for 15 minutes and the absorance (a) at 410 nm was measured.
A sample for blind test was prepared by using the buffer instead of the anti-prolyl endopeptidase compound and its absorbance (b) was also measured. The percent inhibition of prolyl endopeptidase was calculated by the formula: ((b-a)/b)×100, and the amount of a specific compound to achieve 50% inhibition (IC50) was determined.

[1] = test system: experimental amnesia caused in rats by scopolamine; test: Preventive effect against experimental amnesia caused in rats by scopolamine (intraperitoneal administration); type: in vivo, Wister male rats; settings: for No. of amnesic rats/No. of rats tested / Percentage amnesia: scopolamine 3 mg/kg i.p., assessed 24 and 48 hours after scopolamine
Method: (§1) Several of the anti-prolyl endopeptidase compounds of the present invention were checked for their ability to prevent the inhibition of long-term memory fixation by scopolamine. Solutions of physiological saline that contained selected compounds of the present inventions in varying amounts (20 mg, 2 mg, 0.2 mg and 0.02 mg/kg) were administered intraperitoneally once a day to Wister male rats (100-120 g). One hour after the administration, electric shocks were applied to the rats so that they would acquire passive avoidance learning. Immediately thereafter, scopolamine was administered intraperitoneally to each rat in an amount of 3 mg per kg of body weight.
(§2) The result of the test was assessed both 24 hours and 48 hours after the administration of scopolamine. The number of amnesic rats and that of sound rats were counted for each of the control group (rats which were not administered the test compounds but administered intraperitoneally only scopolamine and physiological saline) and the treated group (rats which were administered both the test compound and scopolamine).

[2] = Acute toxicity test in mice; settings: mouse, in vivo, ip; single i.p. administration in DMSO/physiological saline, five mice per group, observed at 24 and 48 hours; read-out: Average dose (mg/kg) at which the group remained sound and showed no sign of intoxication
Method: The compounds of the present invention were checked for their acute toxicity in CDF-1 strain male mice (body weight: 27.2-30.1 g) purchased from Awazu Laboratory Animals Co., Ltd.
Test samples were prepared by dissolving the respective compounds in DMSO, and mixing with an equal amount of physiological saline. A portion (0.1 ml) of the so conditioned test sample was administered intraperitoneally to each of the mice used. Each of the tested groups consisted of five mice. At 24 and 48 hours of the administration, the mice were observed.

[3] = test system: experimental amnesia caused in rats by scopolamine; test: Preventive effect against experimental amnesia caused in rats by scopolamine (oral administration); type: in vivo; settings: for No. of amnesic rats/No. of rats tested / Percentage amnesia: scopolamine 3 mg/kg i.p.
Method: as §1, §2
Varying amounts (1, 5, 25 and 100 mg/kg) of the compound were administered orally to each of the rats and tested for its anti-amnesic effects by the same procedures as used in Example 9.

| Structure (SMILES) | IC50 (μg/test tube) (prolyl endopeptidase) | No. of amnesic rats/No. of rats tested ([1]; 0.2 mg/kg i.p.) | Percentage amnesia ([1]; 0.2 mg/kg i.p.) [%] | No. of amnesic rats/No. of rats tested ([1]; 2 mg/kg i.p.) | Percentage amnesia ([1]; 2 mg/kg i.p.) [%] | NOAEL at 48 h [2] [mg/kg] | No. of amnesic rats/No. of rats tested ([1]; 20 mg/kg i.p.) | Percentage amnesia ([1]; 20 mg/kg i.p.) [%] | No. of amnesic rats/No. of rats tested ([1]; 0.02 mg/kg i.p.) | Percentage amnesia ([1]; 0.02 mg/kg i.p.) [%] | effect in preventing amnesia (in words) ([1]; i.p. administration, Example 9) | No. of amnesic rats/No. of rats tested ([3]; 1 mg/kg p.o.) | Percentage amnesia ([3]; 1 mg/kg p.o.) [%] | No. of amnesic rats/No. of rats tested ([3]; 5 mg/kg p.o.) | Percentage amnesia ([3]; 5 mg/kg p.o.) [%] | No. of amnesic rats/No. of rats tested ([3]; 25 mg/kg p.o.) | Percentage amnesia ([3]; 25 mg/kg p.o.) [%] | No. of amnesic rats/No. of rats tested ([3]; 100 mg/kg p.o.) | Percentage amnesia ([3]; 100 mg/kg p.o.) [%] | oral amount giving the strongest anti-amnesic action ([3]; of 1, 5, 25 and 100 mg/kg administered orally to rats) [mg/kg] |
| --- | --- | --- | --- | --- | --- | --- | --- | --- | --- | --- | --- | --- | --- | --- | --- | --- | --- | --- | --- | --- |
| O=CC1CCCN1C(=O)Cc1ccccc1 (stereo not shown) [Compound No. 1] | 0.8 | 7/10 | 70 | 3/10 | 30 | 535 | – | – | – | – | – | – | – | – | – | – | – | – | – | – |
| COC(=O)[C@@H]1CCCN1C(=O)Cc1ccccc1 [Compound No. 2, N-phenylacetyl-proline methyl ester] | 200 | – | – | – | – | 535 | 7/10 | 70 | – | – | – | – | – | – | – | – | – | – | – | – |
| O=CC1CCCN1C(=O)CCc1ccccc1 (stereo not shown) [Compound No. 3, N-(3-phenylpropionyl)-prolinal] | 0.018 | 4/15 | 27 | 4/15 | 27 | 543 | – | – | 7/15 | 47 | – | – | – | – | – | – | – | – | – | – |
| COC(=O)[C@@H]1CCCN1C(=O)CCc1ccccc1 [Compound No. 4, N-(3-phenylpropionyl)-proline methyl ester] | 60 | – | – | 8/10 | 80 | 542 | 4/10 | 40 | – | – | – | – | – | – | – | – | – | – | – | – |
| O=CC1CCCN1C(=O)CCCc1ccccc1 (stereo not shown) [Compound No. 5] | 0.006 | 2/15 | 13 | 3/15 | 20 | 534 | – | – | 4/15 | 27 | particularly effective in preventing amnesia | 4/10 | 40 | 1/10 | 10 | 3/10 | 30 | 8/10 | 80 | 5 |
| COC(=O)C1CCCN1C(=O)CCCc1ccccc1 (stereo not shown) [Compound No. 6, N-(4-phenyl-n-butyryl)-proline methyl ester] | 25 | 5/10 | 50 | 3/10 | 30 | 536 | – | – | – | – | – | – | – | – | – | – | – | – | – | – |
| O=CC1CCCN1C(=O)CCCCCc1ccccc1 (stereo not shown) [Sample prepared in Example 7, N-(6-phenyl-n-caproyl)-prolinal] | 0.35 | – | – | – | – | – | – | – | – | – | – | – | – | – | – | – | – | – | – | – |
